# Data from US6914045B2, “Glycopeptide antibiotics” (Wyeth Holdings Corporation, priority 2001, dated 2005).
# Columns and labels:
# Assay in all cases: in vitro antibacterial evaluation, MIC by broth dilution
# Type in all cases: cell-based
# Enterococcus sp. = conditions: broth dilution, 18 hours at 35° C.
# Outline: (§1)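 Broth dilution per NCCLS standard M7-A2 in Muller-Hinton II […], with an inoculum of 5×10^5 CFU/mL and antibiotic spanning 64-0.06 μg/mL. The MIC is the lowest concentration that inhibits growth of the organism.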
# Escherichia coli = conditions: 18 hours at 35° C.
# Outline: as §1
# Staphylococcus sp. = conditions: broth dilution, 18 hours at 35° C.
# Outline: as §1
# Streptococcus sp. = conditions: broth dilution, 18 hours at 35° C.
# Outline: as §1
smiles,measurement,setting,value
CC(c1ccccc1)C1NC(=O)CNC(=O)C(CO)NC(=O)C(C(O)C2CNC(=N)N2C2OC(CO)C(O)C(O)C2O)NC(=O)C(C(O)C2CNC(=N)N2)NC(=O)C(Cc2ccc(OC3OC(CO)C(OC4OC5COC(CCc6ccccc6)OC5C(O)C4O)C(O)C3O)cc2)NC1=O (stereo not shown) [Example 124],MIC Enterococcus avium (GC 4558),Enterococcus sp.; Enterococcus avium (GC 4558),0.25 µg/mL
same,MIC Enterococcus faecalis (ATCC 29212),Enterococcus sp.; Enterococcus faecalis (ATCC 29212),4 µg/mL
same,MIC Enterococcus faecalis (GC 2242),Enterococcus sp.; Enterococcus faecalis (GC 2242),4 µg/mL
same,MIC Enterococcus faecalis (GC 2691),Enterococcus sp.; Enterococcus faecalis (GC 2691),4 µg/mL
same,MIC Enterococcus faecalis (GC 3059),Enterococcus sp.; Enterococcus faecalis (GC 3059),4 µg/mL
same,MIC Enterococcus faecalis (GC 4552),Enterococcus sp.; Enterococcus faecalis (GC 4552),4 µg/mL
same,MIC Enterococcus faecalis (GC 4553),Enterococcus sp.; Enterococcus faecalis (GC 4553),4 µg/mL
same,MIC Enterococcus faecalis (GC 4554),Enterococcus sp.; Enterococcus faecalis (GC 4554),4 µg/mL
same,MIC Enterococcus faecalis (GC 6189),Enterococcus sp.; Enterococcus faecalis (GC 6189),4 µg/mL
same,MIC Enterococcus faecium (GC 2243),Enterococcus sp.; Enterococcus faecium (GC 2243),4 µg/mL
same,MIC Enterococcus faecium (GC 4556),Enterococcus sp.; Enterococcus faecium (GC 4556),4 µg/mL
same,MIC Enterococcus faecium (GC 4557),Enterococcus sp.; Enterococcus faecium (GC 4557),1 µg/mL
same,MIC Enterococcus faecalis (ATCC 29212),Enterococcus sp.; strain ATCC 29212,4 µg/mL
same,MIC Enterococcus faecalis (GC 2242),Enterococcus sp.; strain GC 2242,4 µg/mL
same,MIC Enterococcus faecium (GC 2243),Enterococcus sp.; strain GC 2243,4 µg/mL
same,MIC Enterococcus faecalis (GC 2691),Enterococcus sp.; strain GC 2691,4 µg/mL
same,MIC Enterococcus faecalis (GC 3059),Enterococcus sp.; strain GC 3059,4 µg/mL
same,MIC Enterococcus faecalis (GC 4552),Enterococcus sp.; strain GC 4552,4 µg/mL
same,MIC Enterococcus faecalis (GC 4553),Enterococcus sp.; strain GC 4553,4 µg/mL
same,MIC Enterococcus faecalis (GC 4554),Enterococcus sp.; strain GC 4554,4 µg/mL
same,MIC Enterococcus faecium (GC 4556),Enterococcus sp.; strain GC 4556,4 µg/mL
same,MIC Enterococcus faecium (GC 4557),Enterococcus sp.; strain GC 4557,1 µg/mL
same,MIC Enterococcus avium (GC 4558),Enterococcus sp.; strain GC 4558,0.25 µg/mL
same,MIC Enterococcus faecalis (GC 6189),Enterococcus sp.; strain GC 6189,4 µg/mL
same,MIC Escherichia coli (ATCC 25922),Escherichia coli; strain ATCC 25922,32 µg/mL
same,MIC Escherichia coli (GC 4559),Escherichia coli; strain GC 4559,32 µg/mL
same,MIC Escherichia coli (GC 4560),Escherichia coli; strain GC 4560,1 µg/mL
same,MIC Staphylococcus aureus (ATCC 29213),Staphylococcus sp.,2 µg/mL
same,MIC Staphylococcus aureus (GC 1131),Staphylococcus sp.,2 µg/mL
same,MIC Staphylococcus aureus (GC 3051),Staphylococcus sp.,2 µg/mL
same,MIC Staphylococcus aureus (GC 3053),Staphylococcus sp.,2 µg/mL
same,MIC Staphylococcus aureus (GC 4541),Staphylococcus sp.,2 µg/mL
same,MIC Staphylococcus aureus (GC 4542),Staphylococcus sp.,1 µg/mL
same,MIC Staphylococcus aureus (GC 4544),Staphylococcus sp.,2 µg/mL
same,MIC Staphylococcus aureus (GC 4545),Staphylococcus sp.,2 µg/mL
same,MIC Staphylococcus aureus (GC 1131),"Staphylococcus sp.; inoculum 5×10^5 CFU/mL, strain GC 1131",2 µg/mL
same,MIC Staphylococcus aureus (ATCC 29213),Staphylococcus sp.; strain ATCC 29213,2 µg/mL
same,MIC Staphylococcus aureus (GC 3051),Staphylococcus sp.; strain GC 3051,2 µg/mL
same,MIC Staphylococcus aureus (GC 3053),Staphylococcus sp.; strain GC 3053,2 µg/mL
same,MIC Staphylococcus aureus (GC 4541),Staphylococcus sp.; strain GC 4541,2 µg/mL
same,MIC Staphylococcus aureus (GC 4542),Staphylococcus sp.; strain GC 4542,1 µg/mL
same,MIC Staphylococcus aureus-SMITH (GC 4543),Staphylococcus sp.; strain GC 4543,2 µg/mL
same,MIC Staphylococcus aureus (GC 4544),Staphylococcus sp.; strain GC 4544,2 µg/mL
same,MIC Staphylococcus aureus (GC 4545),Staphylococcus sp.; strain GC 4545,2 µg/mL
same,MIC Staphylococcus haemolyticus (GC 4546),Staphylococcus sp.; strain GC 4546,2 µg/mL
same,MIC Coagulase Negative Staphylococcus (GC 4547),Staphylococcus sp.; strain GC 4547,2 µg/mL
same,MIC Coagulase Negative Staphylococcus (GC 4548),Staphylococcus sp.; strain GC 4548,1 µg/mL
same,MIC Coagulase Negative Staphylococcus (GC 4549),Staphylococcus sp.; strain GC 4549,1 µg/mL
same,MIC Coagulase Negative Staphylococcus (GC 4551),Staphylococcus sp.; strain GC 4551,2 µg/mL
same,MIC Coagulase Negative Staphylococcus (GC 6257),Staphylococcus sp.; strain GC 6257,1 µg/mL
same,MIC Staphylococcus aureus-SMITH (GC 4543),Staphylococcus sp.; strain SMITH GC 4543,2 µg/mL
same,MIC Streptococcus agalactiae (GC 4564),Streptococcus sp.; Streptococcus agalactiae (GC 4564),1 µg/mL
same,MIC Streptococcus pneumoniae (ATCC 6301),Streptococcus sp.; Streptococcus pneumoniae (ATCC 6301),<0.06 µg/mL
same,MIC Streptococcus pneumoniae (GC 1894),Streptococcus sp.; Streptococcus pneumoniae (GC 1894),<0.06 µg/mL
same,MIC Streptococcus pneumoniae (GC 4565),Streptococcus sp.; Streptococcus pneumoniae (GC 4565),<0.06 µg/mL
same,MIC Streptococcus pyogenes (GC 4563),Streptococcus sp.; Streptococcus pyogenes (GC 4563),0.12 µg/mL
same,MIC Streptococcus pneumoniae (ATCC 6301),Streptococcus sp.; strain ATCC 6301,<0.06 µg/mL
same,MIC Streptococcus pneumoniae (GC 1894),Streptococcus sp.; strain GC 1894,<0.06 µg/mL
same,MIC Streptococcus pyogenes (GC 4563),Streptococcus sp.; strain GC 4563,0.12 µg/mL
same,MIC Streptococcus agalactiae (GC 4564),Streptococcus sp.; strain GC 4564,1 µg/mL
same,MIC Streptococcus pneumoniae (GC 4565),Streptococcus sp.; strain GC 4565,<0.06 µg/mL
